Columns and labels:
MTT cell viability assay = format: cell-based, human; conditions: human, HaCaT keratinocyte cells (healthy control line), 24 h, compounds 0.01–40 μM, healthy control line, read-out: In Vitro Cytotoxicity, EC50 ± SD, HaCaT
Text: (§1) Initially, we phenotypically screened the synthesized compounds over a panel of tumor cell lines composed of HEPG2, A375, SHSY5Y, MCF7, and A549 derived from liver tumor, melanoma, neuroblastoma, breast cancer, and lung adenocarcinoma, respectively. We also considered the HaCaT cell line, coming from keratinocytes, as a healthy control line. As reference, cytotoxic chemotherapeutic agent 5-fluorouracil (5-FU) has been used. The results obtained performing the MTT (3-(4,5-dimethylthiazolyl-2)-2,5-diphenyltetrazolium bromide) assay are summarized in Table .
(§2) The human neuroblastoma SHSY5Y, melanoma A375, human breast cancer MCF7, nonsmall lung cancer A549, and human epidermal keratinocyte HaCaT cell lines were obtained from ATCC and were grown in Dulbecco’s Modified Eagle Medium (DMEM) supplemented with 10% (v/v) FBS, 2 mM L-glutamine, 100 U/mL penicillin, and 0.1 mg/mL streptomycin.
(§3) Cell viability was established by measuring mitochondrial metabolic activity with MTT. In brief, HEPG2 (1 × 10^4 cells/well), A375 (2 × 10^3 cells/well), HaCaT (3 × 10^3 cells/well), A549 (3 × 10^3 cells/well), SHSY5Y (2 × 10^4 cells/well), and MCF 7 (5 × 10^3 cells/well) were plated into 96-well plates for 24 h, then the compounds (0.01–40 μM) were added. After 24h, cells were replaced with a fresh medium containing 0.5 mg/mL MTT. Cells were incubated 1–3 h at 37 °C, then the medium was discarded, and formazan blue crystals in the cells were dissolved in 100 μL per well of a solution containing isopropanol/HCl 0.1 M. The absorbance was measured at 570 nm using a microplate reader (Multiskan Go, Thermo Scientific, Waltham, MA, USA). Cell viability was expressed as a percentage relative to the untreated cells cultured in medium with 0.1% DMSO and set to 100%, whereas 10% DMSO was used as positive control and set to 0% of viability. The EC50 values were calculated using GraphPad Prism 8.0 software by nonlinear regression of dose–response inhibition.

HEPG2 = assay: MTT cell viability assay; format: cell-based; conditions: Homo sapiens, 24 h, compounds 0.01–40 μM, read-out: In Vitro Cytotoxicity, EC50 ± SD, HEPG2
Text: as §1
The human hepatoma HEPG2 cell line was obtained from American Type Culture Collection (ATCC, Rockville, MD, USA). Cells were grown in Eagle’s Minimum Essential Medium (EMEM) supplemented with 10% (v/v) fetal bovine serum (FBS), 2 mM L-glutamine, 1% (v/v) nonessential amino acids, 100 U/mL penicillin, and 0.1 mg/mL streptomycin.
as §3

A375 = assay: MTT cell viability assay; format: cell-based; conditions: Homo sapiens, A-375, 24 h, compounds 0.01–40 μM, read-out: In Vitro Cytotoxicity, EC50 ± SD, A375
Text: as §1, §2, §3

A549 = assay: MTT cell viability assay; format: cell-based; conditions: Homo sapiens, 24 h, compounds 0.01–40 μM, read-out: In Vitro Cytotoxicity, EC50 ± SD, A549
Text: as §1, §2, §3

MCF7 = assay: MTT cell viability assay; format: cell-based; conditions: Homo sapiens, 24 h, compounds 0.01–40 μM, read-out: In Vitro Cytotoxicity, EC50 ± SD, MCF7
Text: as §1, §2, §3

SHSY5Y = assay: MTT cell viability assay; format: cell-based; conditions: Homo sapiens, SH-SY5Y, 24 h, compounds 0.01–40 μM, read-out: In Vitro Cytotoxicity, EC50 ± SD, SHSY5Y
Text: as §1, §2, §3

[1] = test system: cancer cell lines (HEPG2, A375, SHSY5Y, MCF7, A549); assay: MTT cytotoxicity screen over panel of tumor cell lines; format: cell-based, human; conditions: in words
Text: as §1, §3

HaCaT = assay: MTT cell viability assay; format: cell-based, human; conditions: in words
Text: as §1, §2, §3

CC(C)C[C@H]1CNc2ccccc2C(=O)N1Cc1ccc(C(F)(F)F)cc1 [Compound 33, (S)-3-Isobutyl-4-(4-(trifluoromethyl)benzyl)-1,2,3,4-tetrahydro-5H-benzo[e][1,4]diazepin-5-one]
EC50 at 24 h (MTT cell viability assay): 9.62 ± 1.12 µM
EC50 (HEPG2): 2.69 ± 0.85 µM
EC50 (A375): 2.51 ± 1.02 µM
EC50 (A549): 10.4 ± 1.01 µM
EC50 (MCF7): 13.9 ± 2.78 µM
EC50 (SHSY5Y): 13.5 ± 2.22 µM
selectivity, tumor cell lines versus healthy line [1]: lack of selectivity

CC(C)CN1c2ccccc2NC(=O)[C@@H]1Cc1ccccc1 [Compound 48, (S)-3-Benzyl-4-isobutyl-3,4-dihydroquinoxalin-2(1H)-one]
EC50 at 24 h (MTT cell viability assay): > 40 µM
EC50 (HEPG2): > 40 µM
EC50 (A375): > 40 µM
EC50 (A549): 35.5 ± 5.48 µM
EC50 (MCF7): > 40 µM
EC50 (SHSY5Y): > 40 µM
cytotoxic activity over the cancer cell lines [1]: no activity

O=C1N[C@@H](Cc2ccccc2)C(=O)N(Cc2ccc(C(F)(F)F)cc2)c2ccccc21 [Compound 28, (S)-3-Benzyl-1-(4-(trifluoromethyl)benzyl)-3,4-dihydro-1H-benzo[e][1,4]diazepine-2,5-dione]
EC50 at 24 h (MTT cell viability assay): 26.9 ± 4.4 µM
EC50 (HEPG2): 11.1 ± 2.25 µM
EC50 (A375): 13 ± 2.1 µM
EC50 (A549): 8.8 ± 1.37 µM
EC50 (MCF7): 11.7 ± 3.12 µM
EC50 (SHSY5Y): 10.7 ± 1.26 µM
selectivity, tumor cell lines versus healthy line [1]: lack of selectivity

CC(C)COC(=O)[C@H](Cc1ccccc1)N1Cc2ccccc2NC1=O [Compound 64, Isobutyl (S)-2-(2-Oxo-1,4-dihydroquinazolin-3(2H)-yl)-3-phenylpropanoate]
EC50 at 24 h (MTT cell viability assay): 24.4 ± 4.51 µM
EC50 (HEPG2): 7.97 ± 2.45 µM
EC50 (A375): 8.64 ± 1.66 µM
EC50 (A549): 32.3 ± 5.76 µM
EC50 (MCF7): 9.55 ± 1.05 µM
EC50 (SHSY5Y): 28.2 ± 3.2 µM
selectivity, tumor cell lines versus healthy line [1]: lack of selectivity

CC(C)C[C@@H](C(=O)NCc1ccccc1)N1Cc2ccccc2OC1=O [Compound 7, (S)-N-Benzyl-4-methyl-2-(2-oxo-2H-benzo[e][1,3]oxazin-3(4H)-yl)pentanamide]
EC50 at 24 h (MTT cell viability assay): 38.4 ± 4.54 µM
cytotoxicity effect over the HaCaT cell lines (HaCaT): exhibited cytotoxicity effect
EC50 (HEPG2): 35.6 ± 3.22 µM
EC50 (A375): 13.7 ± 1.4 µM
EC50 (A549): > 40 µM
EC50 (MCF7): 20.2 ± 3.57 µM
EC50 (SHSY5Y): 11.5 ± 2.05 µM

O=C1[C@H](Cc2ccccc2)N(Cc2ccc(C(F)(F)F)cc2)C(=O)c2ccccc2N1Cc1ccc(C(F)(F)F)cc1 [Compound 30, (S)-3-Benzyl-1,4-bis(4-(trifluoromethyl)benzyl)-3,4-dihydro-1H-benzo[e][1,4]diazepine-2,5-dione]
EC50 at 24 h (MTT cell viability assay): > 40 µM
EC50 (HEPG2): 5.06 ± 1.73 µM
EC50 (A375): 7.44 ± 2.12 µM
EC50 (A549): > 40 µM
EC50 (MCF7): 13.8 ± 3.11 µM
EC50 (SHSY5Y): 37.3 ± 4.45 µM

CC(C)C[C@H]1CN(Cc2ccc(C(F)(F)F)cc2)c2ccccc2C(=O)N1Cc1ccc(C(F)(F)F)cc1 [Compound 34, (S)-3-Isobutyl-1,4-bis(4-(trifluoromethyl)benzyl)-1,2,3,4-tetrahydro-5H-benzo[e][1,4]diazepin-5-one]
EC50 at 24 h (MTT cell viability assay): > 40 µM
EC50 (HEPG2): 11.5 ± 2.16 µM
EC50 (A375): 5.14 ± 2.15 µM
EC50 (A549): 17.6 ± 3.65 µM
EC50 (MCF7): > 40 µM
EC50 (SHSY5Y): > 40 µM

CC(C)C[C@@H](C(=O)OCc1ccccc1)n1c(=O)[nH]c2ccccc2c1=O [Compound 23, Benzyl (S)-2-(2,4-Dioxo-1,4-dihydroquinazolin-3(2H)-yl)-4-methylpentanoate]
EC50 at 24 h (MTT cell viability assay): 10.2 ± 1.84 µM
EC50 (HEPG2): 1.7 ± 1.05 µM
EC50 (A375): 3.88 ± 1.64 µM
EC50 (A549): 4.12 ± 1.89 µM
EC50 (MCF7): 12.2 ± 2.64 µM
EC50 (SHSY5Y): 3.5 ± 1.41 µM
selectivity, tumor cell lines versus healthy line [1]: lack of selectivity

CC(C)C[C@H]1CN(Cc2ccc(C(F)(F)F)cc2)c2ccccc2CN1Cc1ccc(C(F)(F)F)cc1 [Compound 38, (S)-3-Isobutyl-1,4-bis(4-(trifluoromethyl)benzyl)-2,3,4,5-tetrahydro-1H-benzo[e][1,4]diazepine]
EC50 at 24 h (MTT cell viability assay): > 40 µM
EC50 (HEPG2): 15.4 ± 1.71 µM
EC50 (A375): 23.1 ± 3.1 µM
EC50 (A549): 37.9 ± 1.64 µM
EC50 (MCF7): > 40 µM
EC50 (SHSY5Y): > 40 µM

CC(C)CN1Cc2ccccc2NC[C@@H]1Cc1ccccc1 [Compound 37, (S)-3-Benzyl-4-isobutyl-2,3,4,5-tetrahydro-1H-benzo[e][1,4]diazepine]
EC50 at 24 h (MTT cell viability assay): > 40 µM
EC50 (HEPG2): > 40 µM
EC50 (A375): 8.92 ± 2.72 µM
EC50 (A549): > 40 µM
EC50 (MCF7): > 40 µM
EC50 (SHSY5Y): > 40 µM

CC(C)(C)CNC(=O)[C@H](Cc1ccccc1)N1Cc2ccccc2OC1=O [Compound 8, (S)-N-Neopentyl-2-(2-oxo-2H-benzo[e][1,3]oxazin-3(4H)-yl)-3-phenylpropanamide]
EC50 at 24 h (MTT cell viability assay): 34.8 ± 3.79 µM
cytotoxicity effect over the HaCaT cell lines (HaCaT): exhibited cytotoxicity effect
EC50 (HEPG2): 21.4 ± 4.94 µM
EC50 (A375): 17.5 ± 3.22 µM
EC50 (A549): 15 ± 2.84 µM
EC50 (MCF7): 13.8 ± 2.28 µM
EC50 (SHSY5Y): > 40 µM

O=c1[nH]cc(F)c(=O)[nH]1 [Compound 5-FU, 5-fluorouracil, reference compound]
EC50 at 24 h (MTT cell viability assay): 0.481 ± 0.059 µM
EC50 (HEPG2): 0.056 ± 0.021 µM
EC50 (A375): 0.032 ± 0.011 µM
EC50 (A549): 0.047 ± 0.02 µM
EC50 (MCF7): 0.023 ± 0.009 µM
EC50 (SHSY5Y): 0.072 ± 0.026 µM

CC(C)C[C@@H]1NC(=O)OCc2ccccc2NC1=O [Compound 52, (S)-3-Isobutyl-1,3,4,7-tetrahydrobenzo[g][1,3,6]oxadiazonine-2,5-dione]
EC50 at 24 h (MTT cell viability assay): > 40 µM
EC50 (HEPG2): > 40 µM
EC50 (A375): > 40 µM
EC50 (A549): > 40 µM
EC50 (MCF7): > 40 µM
EC50 (SHSY5Y): > 40 µM
cytotoxic activity over the cancer cell lines [1]: no activity

CC(C)C[C@@H]1NC(=O)[C@H](Cc2ccccc2)N(Cc2ccccc2)C1=O [Compound 41, (3S,6S)-1,6-Dibenzyl-3-isobutylpiperazine-2,5-dione]
EC50 at 24 h (MTT cell viability assay): > 40 µM
EC50 (HEPG2): > 40 µM
EC50 (A375): > 40 µM
EC50 (A549): > 40 µM
EC50 (MCF7): > 40 µM
EC50 (SHSY5Y): > 40 µM
cytotoxic activity over the cancer cell lines [1]: no activity

CC(C)COC(=O)[C@H](Cc1ccccc1)n1c(=O)[nH]c2ccccc2c1=O [Compound 22, Isobutyl (S)-2-(2,4-Dioxo-1,4-dihydroquinazolin-3(2H)-yl)-3-phenylpropanoate]
EC50 at 24 h (MTT cell viability assay): 27 ± 4.09 µM
EC50 (HEPG2): 4.28 ± 2.04 µM
EC50 (A375): 7.12 ± 2.54 µM
EC50 (A549): 36.3 ± 5.72 µM
EC50 (MCF7): 11.2 ± 3.14 µM
EC50 (SHSY5Y): 30.4 ± 3.92 µM

CC(C)C[C@@H]1NC(=O)c2ccccc2N(Cc2ccc(C(F)(F)F)cc2)C1=O [Compound 29, (S)-3-Isobutyl-1-(4-(trifluoromethyl)benzyl)-3,4-dihydro-1H-benzo[e][1,4]diazepine-2,5-dione]
EC50 at 24 h (MTT cell viability assay): > 40 µM
EC50 (HEPG2): 25.8 ± 2.74 µM
EC50 (A375): 29.4 ± 4.43 µM
EC50 (A549): > 40 µM
EC50 (MCF7): > 40 µM
EC50 (SHSY5Y): > 40 µM

CC(C)C[C@H]1C(=O)Nc2ccccc2N1Cc1ccccc1 [Compound 49, (S)-4-Benzyl-3-isobutyl-3,4-dihydroquinoxalin-2(1H)-one]
EC50 at 24 h (MTT cell viability assay): > 40 µM
EC50 (HEPG2): > 40 µM
EC50 (A375): > 40 µM
EC50 (A549): > 40 µM
EC50 (MCF7): > 40 µM
EC50 (SHSY5Y): > 40 µM
cytotoxic activity over the cancer cell lines [1]: no activity
